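Compound exposure: 48 hours, 5 concentrations, 96-well plates. GI50 = concentration required for 50% inhibition of growth. TGI denotes the concentration required for complete inhibition of growth.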

Among the test systems are OVCAR-3 ovarian; A498 renal; SK-MEL-28 melanoma; IGROV1 ovarian; UACC-257 melanoma; MOLT-4 leukemia; CCRF-CEM leukemia; SNB-19 CNS; SF-539 CNS; NCI-H23 lung.
Holding throughout (test): NCI tumour cell line growth inhibition, 48 h

For the molecule `C#Cc1cccc(Nc2ncnc3cc(OC)c(OCCCCCCC(=O)NO)cc23)c1`, the GI50 is 0.129 µM in the test with OVCAR-3 ovarian; 0.162 µM in the test on A498 renal; 0.136 µM in the test with SK-MEL-28 melanoma; 0.0864 µM in the test on IGROV1 ovarian; 0.123 µM in the test with UACC-257 melanoma; 0.0864 µM in the test on MOLT-4 leukemia. Moreover, the GI50 with CCRF-CEM leukemia was 0.0404 µM; in the test with SNB-19 CNS it was 0.115 µM; in the test with SF-539 CNS it was 0.198 µM; in the test on NCI-H23 lung it was 0.383 µM. Besides, the TGI in the test on OVCAR-3 ovarian was determined as 1.64 µM; in the test with A498 renal, 0.662 µM; with SK-MEL-28 melanoma, 1.47 µM; in the test with IGROV1 ovarian it was 0.476 µM; in the test with UACC-257 melanoma it was 1.12 µM; in the test on MOLT-4 leukemia, 1.93 µM. Moreover, the TGI with CCRF-CEM leukemia stood at 5.85 µM; with SNB-19 CNS it was 3.65 µM; with SF-539 CNS it was 1.34 µM; in the test with NCI-H23 lung, 2.57 µM.
For `CC(SC(C)C(=O)N/N=C/c1cccc(Cl)c1)C(=O)N/N=C\c1cccc(Cl)c1` (stereo not drawn), the GI50 was 2.03 µM in the test on OVCAR-3 ovarian; 14.6 µM in the test with A498 renal; 15.2 µM with SK-MEL-28 melanoma; 18.4 µM in the test on IGROV1 ovarian; 32.3 µM in the test with UACC-257 melanoma; 11.2 µM with MOLT-4 leukemia. In addition, the GI50 is 5.77 µM in the test with CCRF-CEM leukemia, 21.7 µM with SNB-19 CNS, 16.3 µM in the test on SF-539 CNS and 14 µM in the test on NCI-H23 lung. Moreover, the TGI is 3.81 µM with OVCAR-3 ovarian; 32.2 µM in the test on A498 renal; 34.4 µM with SK-MEL-28 melanoma; 69.3 µM with IGROV1 ovarian; over 100 µM with UACC-257 melanoma; 42 µM in the test with MOLT-4 leukemia. Moreover, the TGI is 52.3 µM with CCRF-CEM leukemia, over 100 µM in the test on SNB-19 CNS, 44.2 µM with SF-539 CNS and 32.6 µM in the test with NCI-H23 lung.
Regarding `S=C(N/N=C/c1ccco1)NC12CC3CC(CC(C3)C1)C2`, the TGI in the test with OVCAR-3 ovarian, in the test on A498 renal, in the test on SK-MEL-28 melanoma, with IGROV1 ovarian, in the test on UACC-257 melanoma and in the test on MOLT-4 leukemia was over 100 µM throughout. In addition, the TGI with CCRF-CEM leukemia, in the test with SNB-19 CNS, in the test with SF-539 CNS and with NCI-H23 lung was over 100 µM in each case.
For the molecule `CC1OC(n2cc(F)c(=O)[nH]c2=O)C=CC1O` (stereo not drawn), the TGI with OVCAR-3 ovarian, in the test with A498 renal, in the test with SK-MEL-28 melanoma, with IGROV1 ovarian, with UACC-257 melanoma and in the test with MOLT-4 leukemia was over 100 µM in each case. The TGI with CCRF-CEM leukemia is over 77.9 µM; with SNB-19 CNS, over 100 µM; in the test with SF-539 CNS, over 100 µM; with NCI-H23 lung it was over 100 µM.
In the case of `COc1ccc(OC)c(NC(=O)C(=O)NNC(=O)c2sc(NNC(C)=O)nc2C)c1`, the TGI was 66.3 µM in the test on OVCAR-3 ovarian; 52.1 µM in the test with A498 renal; over 100 µM in the test with SK-MEL-28 melanoma; over 100 µM in the test with IGROV1 ovarian; 61.5 µM in the test with UACC-257 melanoma; 47.1 µM in the test with MOLT-4 leukemia. The TGI in the test on CCRF-CEM leukemia was 45.2 µM; in the test with SNB-19 CNS, over 100 µM; with SF-539 CNS, 82.3 µM; in the test on NCI-H23 lung it was 68.8 µM.
As for `Cc1ccc(C(SCC(N)C(=O)O)(c2ccccc2)c2ccc(C)cc2)cc1` (stereo not drawn), the GI50 is 0.192 µM with OVCAR-3 ovarian; 0.225 µM in the test on A498 renal; 2.09 µM in the test on SK-MEL-28 melanoma; 0.526 µM with IGROV1 ovarian; 2.13 µM in the test with UACC-257 melanoma; 2.7 µM in the test with MOLT-4 leukemia. The GI50 was 0.341 µM in the test on CCRF-CEM leukemia, 0.476 µM in the test on SNB-19 CNS, 0.129 µM in the test on SF-539 CNS and 0.423 µM with NCI-H23 lung. The TGI in the test on OVCAR-3 ovarian is 2.64 µM; in the test with A498 renal, 4.5 µM; with SK-MEL-28 melanoma it was 23.7 µM; in the test with IGROV1 ovarian it was 26.1 µM; in the test with UACC-257 melanoma it was over 56.8 µM; in the test on MOLT-4 leukemia, over 48.2 µM. In addition, the TGI is over 75.7 µM with CCRF-CEM leukemia, 39.3 µM with SNB-19 CNS, 2.47 µM in the test with SF-539 CNS and 23.7 µM with NCI-H23 lung.
Consider `COC(=O)C(C(=O)C(=O)Nc1cccc(OC)c1)c1cnc2ccccc2n1` (stereo not drawn), for which the TGI in the test with A498 renal, in the test on SK-MEL-28 melanoma, in the test with IGROV1 ovarian, in the test with UACC-257 melanoma, in the test on MOLT-4 leukemia and in the test with CCRF-CEM leukemia was over 100 µM in each case. In addition, the TGI in the test on SNB-19 CNS, with SF-539 CNS and in the test on NCI-H23 lung was over 100 µM throughout.
For the molecule `NC(=NCCCOc1ccc(Cl)cc1)Nc1ccc(C(F)(F)F)cc1`, the GI50 in the test on OVCAR-3 ovarian is 2.26 µM; in the test on A498 renal it was 2.08 µM; in the test on IGROV1 ovarian it was 1.47 µM; with UACC-257 melanoma, 1.72 µM; with MOLT-4 leukemia, 1.41 µM; with CCRF-CEM leukemia, 2.59 µM. Also, the GI50 in the test on SNB-19 CNS was 2.79 µM; with NCI-H23 lung it was 2.06 µM. For the same molecule, the TGI is 6.14 µM with OVCAR-3 ovarian; 6.08 µM in the test with A498 renal; 4.12 µM with IGROV1 ovarian; 3.56 µM in the test on UACC-257 melanoma; 5 µM in the test on MOLT-4 leukemia; 9.75 µM in the test with CCRF-CEM leukemia. The figures for the TGI in the test with SNB-19 CNS and with NCI-H23 lung were 19.5 µM and 5.54 µM, respectively.
As for `Cc1ccc(SC(C)/C=C/NNC2=NC(c3ccccc3)C(c3ccccc3)=NN2)cc1` (stereo not drawn), the TGI in the test with OVCAR-3 ovarian, in the test on A498 renal, in the test on SK-MEL-28 melanoma, with IGROV1 ovarian, with UACC-257 melanoma and in the test with MOLT-4 leukemia was over 100 µM each time. For the same molecule, the TGI in the test with CCRF-CEM leukemia, with SF-539 CNS and in the test on NCI-H23 lung was over 100 µM in each case.
`Ic1ccc(Nc2nc3nonc3nc2Nc2ccc(I)cc2)cc1`: the GI50 with OVCAR-3 ovarian was 0.214 µM; in the test with A498 renal, 0.0829 µM; in the test on IGROV1 ovarian, 0.46 µM; in the test with UACC-257 melanoma, 0.2 µM; with MOLT-4 leukemia, 0.256 µM; in the test on CCRF-CEM leukemia, 0.145 µM. In addition, in the test with SNB-19 CNS, the GI50 is 0.324 µM. In addition, the TGI in the test on OVCAR-3 ovarian was over 100 µM; with A498 renal, 0.418 µM; in the test with IGROV1 ovarian it was over 100 µM; in the test with UACC-257 melanoma, 0.772 µM; with MOLT-4 leukemia it was 1.06 µM; with CCRF-CEM leukemia, over 100 µM. In the test with SNB-19 CNS, this molecule yielded a TGI of over 100 µM.

The record behind these values is PubChem BioAssay (NCI).
